The source of these data is patent US20180072988A1, “GENERATION OF FUNCTIONAL CELLS FROM STEM CELLS” (priority 2015, published 2018).

Entries after “also recorded” stand apart in the source; their conditions may differ.

One assay relates to iENs. Nature of the assay: sEPSC recording from iENs. Format: cell-based, human. The following applies: CNQX 20 μM; 21 dpt. On the procedure:
Whole cell patch clamp recordings were performed on iGNs and iENs with voltage or current clamp mode. Recording pipettes with resistances of 4-6 MΩ were filled with an internal solution containing (in mM): 120 K-gluconate, 9 KCl, 10 KOH, 3.48 MgCl2, 4 NaCl, 10 HEPES, 4 Na2ATP, 0.4 Na3GTP, 17.5 Sucrose, 0.5 EGTA with an osmolarity of 290 mOsm and pH 7.3. Neurons were bathed in the extracellular solution containing (in mM): 124 NaCl, 3 KCl, 1.3 NaH2PO4, 10 dextrose, 2 MgCl2, 2 CaCl2, 10 HEPES at pH 7.4. […] Neurons were held at −70 mV except otherwise indicated or at required currents using an Axon MultiClamp 700B amplifier (Axon Instruments). Signal was sampled at 40 kHz and filtered at 2 kHz (Digidata 1440A, Molecular Devices). Recordings with serial resistance higher than 20 MO or leaking current more than 200 pA were not analyzed. Data were analyzed offline using the ClampFit (Molecular Devices) or MiniAnalysis (Synaptosoft). Voltage clamp was used for recording I/V curve of Na/K current using a protocol of increasing holding potential 10 mV for each step from −80 mV. […] The reversal potential for ions was −49 mV in our recording system, calculated using the simplified Nernst equation: E(Cl^−)=−59*log(extracellular[Cl^−]/intracellular[Cl^−]),(T=25° C.). Spontaneous action potentials were recorded at I=0 mode. […]

Assay [1] deals with transplanted human iGNs in acute cortical slices. As to the kind of experiment: Slice recording of sEPSCs from human iGNs transplanted into mouse cortex. Format: cell-based. The following applies: CNQX 50 μM; -70 mV voltage clamp. As to the method:
P1 NSG pups were anesthetized on ice for 1-2 minutes before being secured with tape onto a prechilled ice block. Human iGNs were priorly labeled with RFP as described, and trypsinized to single cells at 8 dpt. Concentrated cell suspensions (˜2.5-5×10^4 cells/μl) were front loaded into a microliter syringe (26s gauge, Hamilton Company) and injected (200 nl, 250 nl/min) bilaterally to a depth of 0.2 mm near the centre of the anterior/posterior axis and 1 mm away from the midline.
After isofluorane anesthesia, brains were quickly cut out and 300-μm coronal slices were sectioned using vibrating microtome (VF-200 Microtome, Precisionary Instruments). Slices were incubated at 30° C. in artificial cerebrospinal fluid (ACSF) containing (in mM): 125 NaCl, 2.5 KCl, 1.25 NaH2PO4, 2 CaCl2, 1 MgCl2, 26 NaHCO3, and 10 glucose, saturated with 95% 02 and 5% CO2 at 30-32° C. for recovery for at least 1 hour. During recording, slices were kept in a recording chamber with continuous perfusion of ACSF. CNQX (50 μM, Tocris) was used to block sEPSC. Patch recordings were done by using IR-DIC visualization techniques with an Olympus BX51WI upright microscope with a ×60 water-immersion lens. Patch clamp recording method was same with that of recording in cultured cell.

For the next assay, the system named is mixed iENs/iGNs. Nature of the assay: Spontaneous PSC recording from iGNs in mixed iENs/iGNs co-culture. Format: cell-based, human. The following applies: 56 dpt, -70 mV; after bicuculline. On the procedure:
(§1) Whole cell patch clamp recordings were performed on iGNs and iENs with voltage or current clamp mode. Recording pipettes with resistances of 4-6 MΩ were filled with an internal solution containing (in mM): 120 K-gluconate, 9 KCl, 10 KOH, 3.48 MgCl2, 4 NaCl, 10 HEPES, 4 Na2ATP, 0.4 Na3GTP, 17.5 Sucrose, 0.5 EGTA with an osmolarity of 290 mOsm and pH 7.3. Neurons were bathed in the extracellular solution containing (in mM): 124 NaCl, 3 KCl, 1.3 NaH2PO4, 10 dextrose, 2 MgCl2, 2 CaCl2, 10 HEPES at pH 7.4. Bicuculline (20 μM, Tocris) and CNQX (50 μM, Tocris) were used to block inhibitory or excitatory synaptic responses, respectively. Neurons were held at −70 mV except otherwise indicated or at required currents using an Axon MultiClamp 700B amplifier (Axon Instruments). Signal was sampled at 40 kHz and filtered at 2 kHz (Digidata 1440A, Molecular Devices). Recordings with serial resistance higher than 20 MO or leaking current more than 200 pA were not analyzed. Data were analyzed offline using the ClampFit (Molecular Devices) or MiniAnalysis (Synaptosoft). […] The reversal potential for ions was −49 mV in our recording system, calculated using the simplified Nernst equation: E(Cl^−)=−59*log(extracellular[Cl^−]/intracellular[Cl^−]),(T=25° C.). Spontaneous action potentials were recorded at I=0 mode. […]

The next assay has as its system iGNs. As to the kind of experiment: Whole cell patch clamp of iGNs: GABA-evoked responses and spontaneous IPSCs. Format: cell-based, human. The following applies: 1 mM, 100 ms. As to the method:
as §1, with “Neurons were held at −70 mV except otherwise indicated or at required currents using an Axon MultiClamp 700B amplifier (Axon Instruments). Signal was sampled at 40 kHz and filtered at 2 kHz (Digidata 1440A, Molecular Devices).” left out
For chemical GABA evoked IPSC recording, tip of glass pipettes filled with freshly made GABA (1 mM, Sigma) was put approximately 100 μm away from soma along dendrites of recorded neurons. […]
In general terms: In patch-clamp work, channel activity is measured electrically.

The subject of a further assay is iGN expressing ChETA. Format: cell-based, human.

As to `N#Cc1cc2[nH]c(=O)c(=O)[nH]c2cc1[N+](=O)[O-]` [CNQX], in the assay with iENs, the “sEPSCs in iENs, block” value is given as “completely abolished sEPSCs”. Also, the “spontaneous EPSCs (sEPSCs) in transplanted iGNs, block” value in assay [1] is “abolished; also recorded: blocked”. The “sEPSCs (fast-rise, fast-decay PSCs) in iGNs of mixed culture, block” value in the assay on mixed iENs/iGNs was “completely abolished the remaining fast-rise, fast-decay PSCs; also recorded: blocked”.
In the case of `NCCCC(=O)O` [GABA, gamma-aminobutyric acid], in the assay with iGNs, the “induction of IPSCs by exogenous application” value is “triggered inhibitory postsynaptic currents”.
TTX: the “light-evoked inward currents, block” value in the assay on iGN expressing ChETA was “could not block these light-evoked currents”.
